Here are results for 3 compounds from ChEMBL document CHEMBL1201862, “PubChem BioAssay data set” (2004).

As a reminder, the EC50 is the concentration giving half of the maximal effect. The term AC50 denotes the concentration giving half of the maximal activity seen. As a reminder, the IC50 is the point on the concentration scale where inhibition reaches its midpoint.

Activity calls are given as the source filed them.

For test [1], the target named is T1, Zinc finger protein mex-5 (Caenorhabditis elegans, UniProt Q9XUB2).
T1 sequence (Q9XUB2 whole entry): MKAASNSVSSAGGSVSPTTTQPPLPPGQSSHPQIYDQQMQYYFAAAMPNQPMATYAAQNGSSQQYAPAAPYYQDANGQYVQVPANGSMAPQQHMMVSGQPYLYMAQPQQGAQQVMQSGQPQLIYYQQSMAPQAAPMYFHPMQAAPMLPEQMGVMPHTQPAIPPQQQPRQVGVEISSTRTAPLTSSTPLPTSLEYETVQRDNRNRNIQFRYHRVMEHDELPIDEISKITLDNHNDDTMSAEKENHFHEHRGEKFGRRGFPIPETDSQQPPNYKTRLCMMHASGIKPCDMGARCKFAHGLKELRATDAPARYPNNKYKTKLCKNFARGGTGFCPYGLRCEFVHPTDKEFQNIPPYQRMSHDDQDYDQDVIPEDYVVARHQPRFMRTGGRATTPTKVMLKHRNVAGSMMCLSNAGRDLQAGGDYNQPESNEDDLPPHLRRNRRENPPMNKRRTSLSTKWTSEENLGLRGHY
Description: potency of MEX-5 RNA-binding blockers – biochemical, C. elegans, fluorescence polarization, dose response (AID 1960). A general note: Fluorescence polarisation rises when a labelled molecule tumbles more slowly, as on binding a larger partner.

The target in test [2] is ORF 73 (Human herpesvirus 8, UniProt O40947). The test can be described thus: KSHV LANA DNA-binding disruption – biochemical, fluorescence polarization, cherry-picked samples, dose response (AID 504725).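 Note: fluorescence polarization of a labeled DNA duplex reporting LANA DNA binding; potency is for inhibitors that block LANA binding to the DNA.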 Also noted: species or system Human gammaherpesvirus 8.
The target in test [3] is Peroxisome proliferator-activated receptor gamma/Nuclear receptor corepressor 2 (Homo sapiens, UniProt P37231+Q9Y618). Format: functional.
For test [4], the target named is Protein-arginine deiminase type-4 (Homo sapiens, UniProt Q9UM07). Description: IC50 against protein arginine deiminase 4 – biochemical, fluorescence readout, dose response (AID 492970).
Test [5] deals with Lysine-specific demethylase 4A (Homo sapiens, UniProt O75164). The test can be described thus: inhibition of JMJD2A H3K9me3 demethylation – biochemical, DELFIA europium, cherry-picked samples, selectivity assay for GASC-1 inhibitor project, dose response (AID 488840).
A short description of test [6]: loss of viability in HepG2 cells – cell-based, CellTiter-Glo, cherry-picked, cytotoxicity control for Shn3 inhibitor project, dose response (AID 624134). The class given is functional. (In general: In ATP-based viability assays light output follows the ATP content of the culture.)
Test [7] can be described thus: cytotoxicity toward MDA-MB-231 breast cancer cells – cell-based, CellTiter-Glo luminescence, cherry-pick, cytotoxicity control for RAD54 inhibitor project, dose response (AID 651692). Format: functional.
Test [8] can be described thus: A549 cell cytotoxicity, dose response, cytotoxicity control, plate reader, cherry-pick, antagonist series (AID 743412). The class given is functional, cell-based.
A short description of test [9]: toxicity toward HepG2 liver cells – cell-based, plate reader, cherry-pick, antagonist series, cytotoxicity control, dose response (AID 743416). The class given is functional.
Test [10] concerns the target T2, 1-phosphatidylinositol 4,5-bisphosphate phosphodiesterase gamma-1 (Homo sapiens, UniProt P19174).
T2 sequence (P19174 whole entry): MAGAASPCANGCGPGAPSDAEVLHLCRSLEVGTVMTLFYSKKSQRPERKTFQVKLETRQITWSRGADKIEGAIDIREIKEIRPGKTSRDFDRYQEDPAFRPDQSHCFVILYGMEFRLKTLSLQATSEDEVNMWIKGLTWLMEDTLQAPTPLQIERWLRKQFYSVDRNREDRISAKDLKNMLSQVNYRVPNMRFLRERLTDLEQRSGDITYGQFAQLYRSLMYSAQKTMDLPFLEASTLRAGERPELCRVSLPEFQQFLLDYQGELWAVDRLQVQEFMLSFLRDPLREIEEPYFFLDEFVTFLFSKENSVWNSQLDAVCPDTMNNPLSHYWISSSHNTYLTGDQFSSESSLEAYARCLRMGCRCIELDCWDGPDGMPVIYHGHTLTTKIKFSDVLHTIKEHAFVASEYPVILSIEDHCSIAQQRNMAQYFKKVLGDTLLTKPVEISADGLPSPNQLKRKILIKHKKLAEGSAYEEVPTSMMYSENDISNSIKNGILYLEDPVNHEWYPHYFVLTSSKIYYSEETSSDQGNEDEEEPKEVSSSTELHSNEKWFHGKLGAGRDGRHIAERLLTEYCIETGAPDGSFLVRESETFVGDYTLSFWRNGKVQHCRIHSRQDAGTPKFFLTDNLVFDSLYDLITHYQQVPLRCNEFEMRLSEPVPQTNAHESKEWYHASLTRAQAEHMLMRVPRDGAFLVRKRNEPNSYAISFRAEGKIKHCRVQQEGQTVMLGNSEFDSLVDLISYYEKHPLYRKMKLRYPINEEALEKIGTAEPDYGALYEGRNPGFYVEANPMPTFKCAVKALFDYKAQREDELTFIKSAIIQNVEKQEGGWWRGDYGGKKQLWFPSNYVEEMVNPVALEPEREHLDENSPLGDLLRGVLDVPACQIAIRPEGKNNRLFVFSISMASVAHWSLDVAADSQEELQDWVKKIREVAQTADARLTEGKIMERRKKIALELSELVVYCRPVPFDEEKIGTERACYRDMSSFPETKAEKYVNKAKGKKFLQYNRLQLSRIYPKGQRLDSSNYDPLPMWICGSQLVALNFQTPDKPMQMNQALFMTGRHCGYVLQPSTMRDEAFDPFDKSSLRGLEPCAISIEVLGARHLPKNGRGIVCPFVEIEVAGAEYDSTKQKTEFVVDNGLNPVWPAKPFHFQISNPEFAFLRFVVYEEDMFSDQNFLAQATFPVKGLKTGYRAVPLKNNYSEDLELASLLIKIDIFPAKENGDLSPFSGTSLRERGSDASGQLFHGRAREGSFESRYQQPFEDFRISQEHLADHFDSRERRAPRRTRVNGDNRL
Description: Counterscreen for inhibitors of phospholipase C isozymes (PLC-B3): Fluorescence-based biochemical high throughput dose response assay to identify inhibitors of phospholipase C isozymes (PLC-gamma1). (A counterscreen serves to expose hits that act by an unwanted route or on another target.)

The nature of test [11]: viability loss in HEK293 cells – cell-based, plate reader, cherry-picked samples, cytotoxicity control, dose response (AID 743446). Format: functional.
Test [12] deals with Streptococcus. The test can be described thus: GAS UMAA2166 growth inhibition – luminescence, BacTiterGlo, counter-screen for streptokinase expression inhibitor project, dose response (AID 1915).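 Note: potency for reduction of bacterial viability or growth.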 Format: functional, organism-based.
Test [13] deals with Cytochrome P450 2C19 (Homo sapiens, UniProt P33261). The test can be described thus: Cytochrome panel assay with activity outcomes. Panel member name: p450-cyp2c19 Compounds with AC50 equal or less than 10 uM are considered active. The class given is functional. The conditions noted are these: read-out: AC50.
For test [14], the target named is T3, Galanin receptor type 3 (Homo sapiens, UniProt O60755).
T3 sequence (O60755 whole entry): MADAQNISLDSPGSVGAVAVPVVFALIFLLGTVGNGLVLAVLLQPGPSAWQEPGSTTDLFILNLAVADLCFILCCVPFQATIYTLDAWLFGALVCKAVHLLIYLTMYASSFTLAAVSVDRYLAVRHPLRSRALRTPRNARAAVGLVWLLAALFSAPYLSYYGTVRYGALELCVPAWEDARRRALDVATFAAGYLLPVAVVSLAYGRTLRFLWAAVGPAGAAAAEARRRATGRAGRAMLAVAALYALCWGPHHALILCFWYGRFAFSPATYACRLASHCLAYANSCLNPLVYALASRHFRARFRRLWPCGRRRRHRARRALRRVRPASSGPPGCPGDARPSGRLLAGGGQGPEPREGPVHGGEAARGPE
Description: Fluorescence-based cell-based primary high throughput dose response assay to identify antagonists of the Galanin Receptor 3 (GalR3). The class given is functional.

A short description of test [15]: viability loss in CEM21 cells – cell-based, CellTiter-Glo luminescence, cherry-picked, cytotoxicity control for viral fusion inhibitor project, dose response (AID 652042).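 Note: potency for signal decrease meaning cytotoxicity.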 Format: functional.

Chain of Peroxisome proliferator-activated receptor gamma/Nuclear receptor corepressor 2 (P37231 whole entry): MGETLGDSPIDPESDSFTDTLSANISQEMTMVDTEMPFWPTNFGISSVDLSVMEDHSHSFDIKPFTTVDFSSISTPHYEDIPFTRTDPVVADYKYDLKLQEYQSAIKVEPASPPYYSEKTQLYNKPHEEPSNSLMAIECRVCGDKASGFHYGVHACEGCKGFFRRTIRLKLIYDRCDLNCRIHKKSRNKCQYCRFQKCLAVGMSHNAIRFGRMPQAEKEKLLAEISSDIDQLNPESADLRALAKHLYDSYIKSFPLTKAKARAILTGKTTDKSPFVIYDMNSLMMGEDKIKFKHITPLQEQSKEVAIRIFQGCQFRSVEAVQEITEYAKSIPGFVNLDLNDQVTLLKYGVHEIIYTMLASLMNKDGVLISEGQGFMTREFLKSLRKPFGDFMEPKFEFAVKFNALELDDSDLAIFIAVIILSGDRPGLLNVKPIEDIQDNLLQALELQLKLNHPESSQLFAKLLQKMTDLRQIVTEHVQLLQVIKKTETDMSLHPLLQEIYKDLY
Chain of Peroxisome proliferator-activated receptor gamma/Nuclear receptor corepressor 2 (Q9Y618 whole entry): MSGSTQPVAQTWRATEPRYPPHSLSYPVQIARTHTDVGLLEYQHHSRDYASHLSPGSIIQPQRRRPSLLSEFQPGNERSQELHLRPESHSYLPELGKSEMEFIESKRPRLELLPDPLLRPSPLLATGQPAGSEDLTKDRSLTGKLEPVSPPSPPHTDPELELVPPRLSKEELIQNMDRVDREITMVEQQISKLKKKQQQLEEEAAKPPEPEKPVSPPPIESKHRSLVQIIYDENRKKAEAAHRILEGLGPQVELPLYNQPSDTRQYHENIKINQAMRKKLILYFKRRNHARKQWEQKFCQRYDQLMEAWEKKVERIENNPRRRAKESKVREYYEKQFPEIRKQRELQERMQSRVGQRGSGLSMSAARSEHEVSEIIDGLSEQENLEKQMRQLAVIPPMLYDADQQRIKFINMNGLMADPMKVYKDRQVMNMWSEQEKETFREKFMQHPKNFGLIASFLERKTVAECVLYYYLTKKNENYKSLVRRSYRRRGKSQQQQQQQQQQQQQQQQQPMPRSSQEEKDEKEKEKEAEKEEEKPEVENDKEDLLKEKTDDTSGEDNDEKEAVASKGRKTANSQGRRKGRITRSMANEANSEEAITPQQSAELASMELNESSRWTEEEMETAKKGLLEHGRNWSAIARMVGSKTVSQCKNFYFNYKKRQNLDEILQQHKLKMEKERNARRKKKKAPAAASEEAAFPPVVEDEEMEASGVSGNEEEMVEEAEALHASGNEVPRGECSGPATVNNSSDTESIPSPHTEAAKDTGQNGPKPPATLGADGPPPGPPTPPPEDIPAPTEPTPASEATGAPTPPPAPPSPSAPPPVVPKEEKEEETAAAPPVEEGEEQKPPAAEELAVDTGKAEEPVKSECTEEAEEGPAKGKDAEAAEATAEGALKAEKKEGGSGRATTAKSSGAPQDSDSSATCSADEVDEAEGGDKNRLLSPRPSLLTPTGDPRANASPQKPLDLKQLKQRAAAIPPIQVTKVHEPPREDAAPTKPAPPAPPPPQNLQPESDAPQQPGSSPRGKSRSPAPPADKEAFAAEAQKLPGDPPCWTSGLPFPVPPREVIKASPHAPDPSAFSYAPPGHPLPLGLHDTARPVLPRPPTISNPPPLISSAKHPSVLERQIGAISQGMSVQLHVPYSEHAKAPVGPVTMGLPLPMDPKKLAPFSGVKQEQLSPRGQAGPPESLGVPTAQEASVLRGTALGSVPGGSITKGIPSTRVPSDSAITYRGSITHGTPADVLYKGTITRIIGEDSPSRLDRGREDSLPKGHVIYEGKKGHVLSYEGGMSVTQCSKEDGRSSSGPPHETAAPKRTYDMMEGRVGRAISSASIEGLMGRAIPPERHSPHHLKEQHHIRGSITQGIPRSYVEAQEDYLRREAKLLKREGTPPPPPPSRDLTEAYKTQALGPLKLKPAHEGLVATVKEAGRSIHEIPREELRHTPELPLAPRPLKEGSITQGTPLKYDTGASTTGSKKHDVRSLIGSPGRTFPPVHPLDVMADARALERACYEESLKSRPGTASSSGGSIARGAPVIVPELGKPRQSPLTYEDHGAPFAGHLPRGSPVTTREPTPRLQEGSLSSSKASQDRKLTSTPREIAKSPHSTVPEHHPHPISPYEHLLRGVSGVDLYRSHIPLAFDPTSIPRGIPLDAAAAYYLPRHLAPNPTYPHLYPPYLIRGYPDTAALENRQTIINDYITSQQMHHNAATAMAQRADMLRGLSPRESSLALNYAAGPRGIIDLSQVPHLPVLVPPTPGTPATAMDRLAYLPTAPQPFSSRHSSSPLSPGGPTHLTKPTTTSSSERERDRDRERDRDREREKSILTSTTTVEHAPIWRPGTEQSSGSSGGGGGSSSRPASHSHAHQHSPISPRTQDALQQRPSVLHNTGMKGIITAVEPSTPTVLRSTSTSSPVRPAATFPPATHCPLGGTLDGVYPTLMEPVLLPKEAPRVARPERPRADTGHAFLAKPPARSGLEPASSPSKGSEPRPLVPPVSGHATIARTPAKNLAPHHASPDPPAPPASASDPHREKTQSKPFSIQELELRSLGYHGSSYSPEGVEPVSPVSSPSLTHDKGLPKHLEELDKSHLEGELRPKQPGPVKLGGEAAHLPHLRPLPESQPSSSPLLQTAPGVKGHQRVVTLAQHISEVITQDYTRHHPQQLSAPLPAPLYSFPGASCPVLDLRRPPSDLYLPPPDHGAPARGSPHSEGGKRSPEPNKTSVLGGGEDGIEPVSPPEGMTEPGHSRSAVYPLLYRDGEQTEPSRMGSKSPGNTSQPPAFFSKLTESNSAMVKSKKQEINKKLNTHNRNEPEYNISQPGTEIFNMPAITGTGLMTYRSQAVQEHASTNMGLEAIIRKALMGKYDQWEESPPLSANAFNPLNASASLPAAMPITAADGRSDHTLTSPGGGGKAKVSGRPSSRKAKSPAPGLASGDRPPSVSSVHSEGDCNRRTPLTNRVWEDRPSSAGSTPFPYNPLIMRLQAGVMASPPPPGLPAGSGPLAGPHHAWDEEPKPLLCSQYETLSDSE
Chain of Protein-arginine deiminase type-4 (Q9UM07 whole entry): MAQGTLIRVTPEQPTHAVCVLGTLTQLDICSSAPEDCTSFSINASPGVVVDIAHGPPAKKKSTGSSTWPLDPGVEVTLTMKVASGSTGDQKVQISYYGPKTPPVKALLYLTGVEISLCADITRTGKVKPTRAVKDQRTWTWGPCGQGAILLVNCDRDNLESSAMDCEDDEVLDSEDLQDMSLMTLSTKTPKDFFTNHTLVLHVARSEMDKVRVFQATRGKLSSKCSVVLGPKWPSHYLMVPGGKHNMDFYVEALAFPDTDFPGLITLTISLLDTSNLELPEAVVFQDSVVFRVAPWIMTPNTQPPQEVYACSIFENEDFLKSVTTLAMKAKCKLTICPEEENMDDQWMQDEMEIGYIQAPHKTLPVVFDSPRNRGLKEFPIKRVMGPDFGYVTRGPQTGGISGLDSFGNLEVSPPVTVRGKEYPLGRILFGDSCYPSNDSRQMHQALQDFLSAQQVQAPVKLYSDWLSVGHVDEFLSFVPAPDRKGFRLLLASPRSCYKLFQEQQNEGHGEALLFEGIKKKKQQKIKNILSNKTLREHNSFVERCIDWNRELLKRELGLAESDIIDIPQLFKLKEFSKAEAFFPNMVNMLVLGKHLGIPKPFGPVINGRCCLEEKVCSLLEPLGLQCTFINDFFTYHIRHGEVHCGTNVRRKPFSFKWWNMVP
Chain of ORF 73 (O40947 whole entry): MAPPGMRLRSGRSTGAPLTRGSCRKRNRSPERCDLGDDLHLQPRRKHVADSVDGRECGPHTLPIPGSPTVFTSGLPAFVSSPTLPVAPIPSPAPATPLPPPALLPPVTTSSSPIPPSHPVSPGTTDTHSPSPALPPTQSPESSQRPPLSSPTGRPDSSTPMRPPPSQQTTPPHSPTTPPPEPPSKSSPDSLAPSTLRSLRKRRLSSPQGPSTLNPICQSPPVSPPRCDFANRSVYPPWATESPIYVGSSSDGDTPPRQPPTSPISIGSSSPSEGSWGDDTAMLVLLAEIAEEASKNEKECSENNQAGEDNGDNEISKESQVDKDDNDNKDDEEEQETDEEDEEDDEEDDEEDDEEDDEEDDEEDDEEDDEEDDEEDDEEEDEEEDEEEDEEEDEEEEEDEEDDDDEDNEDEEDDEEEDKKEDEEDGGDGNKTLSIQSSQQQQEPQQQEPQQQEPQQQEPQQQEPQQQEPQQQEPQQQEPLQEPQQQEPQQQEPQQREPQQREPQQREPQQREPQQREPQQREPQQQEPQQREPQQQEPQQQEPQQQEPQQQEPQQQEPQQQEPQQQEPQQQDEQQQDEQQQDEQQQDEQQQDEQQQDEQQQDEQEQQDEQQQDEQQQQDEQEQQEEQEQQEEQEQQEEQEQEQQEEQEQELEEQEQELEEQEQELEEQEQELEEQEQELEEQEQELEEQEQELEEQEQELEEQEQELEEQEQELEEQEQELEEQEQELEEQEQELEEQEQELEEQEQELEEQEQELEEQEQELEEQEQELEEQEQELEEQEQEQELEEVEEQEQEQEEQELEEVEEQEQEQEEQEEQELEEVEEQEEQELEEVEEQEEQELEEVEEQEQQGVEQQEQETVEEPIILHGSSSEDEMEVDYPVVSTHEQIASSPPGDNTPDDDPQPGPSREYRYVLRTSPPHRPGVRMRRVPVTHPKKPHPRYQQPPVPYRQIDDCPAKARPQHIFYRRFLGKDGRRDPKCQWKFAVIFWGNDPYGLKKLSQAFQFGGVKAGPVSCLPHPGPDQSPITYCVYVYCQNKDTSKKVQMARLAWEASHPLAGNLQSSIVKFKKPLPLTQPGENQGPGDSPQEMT

With `COc1ccc(NS(=O)(=O)c2ccc3c(c2)[C@H]2C=CC[C@H]2[C@@H](c2ccc(C(=O)O)cc2)N3)cc1`, the EC50 in [1] was 7.88 µM (active). In test [2], the AC50 was 71.9 µM (active).

In the case of `Cn1nc(-c2ccccn2)nc2c(=O)n(C)c(=O)nc1-2`, the IC50 is 4.69 µM (active) in [3], 21 µM (inactive) in test [4] and > 4.54 µM (active) in [10]. Further, the concentration at half-maximal activity (AC50) was 5.1 µM (active) in [5]; 5.81 µM (active) in test [6]; 3.79 µM (active) in [7]; 3.15 µM (active) in [8]; 2.42 µM (active) in test [9]; 21.2 µM (active) in [11].

With `CCCCCCCCCCn1c2c(c(=N)c3c1CCC3)CCC2`, the EC50 in [12] is 8.86 µM (active). Further, the AC50 is 28.2 µM (inconclusive) in test [13] and 3.4 µM (active) in test [15]. Moreover, in test [14], the half-inhibitory concentration (IC50) is > 1.11 µM (active).
